TGI and GI50 data for 24 molecules are collected here from PubChem BioAssay (NCI).

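Five compound concentrations were applied to cells in 96-well plates for 48 hours; endpoints were derived by simple linear interpolation of the resulting dose-response curve. Here, GI50 denotes the concentration required for 50% inhibition of growth. Definition used: TGI = concentration required for complete inhibition of growth.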

The test system of the first assay is EKVX NSCLC. In words: inhibition of tumour cell growth, NCI panel, 48 h.
The molecule `CC(C)(C)C1=NC(S)NC(CCC(=O)Nc2ccccc2[N+](=O)[O-])=C1` (centres undefined) came in with a TGI of more than 100 µM.

A further assay relates to SK-OV-3 ovarian. In words: inhibition of tumour cell growth, NCI panel, 48 h.
As to `NC1(CCCCCCCCCCC(=O)O)CNCCNCCNCCNC1`, the TGI is more than 100 µM.

Take `C1CN2N3CCCC23C1` (centres undefined): the TGI was more than 100 µM.

For `CC[n+]1ccc2c(c1)C(=O)c1nccc3c1c-2nc1ccccc13`, the GI50 is 0.799 µM and the TGI was found to be 4.83 µM.

`CCCCCCCCCCCCOC1C(CNCC2OC3OC(C)(C)OC3C2NC(=O)Nc2ccc(C(=O)OCC)cc2)OC2OC(C)(C)OC21` (centres undefined): the GI50 is 10.4 µM and the TGI was 23.3 µM.

For the molecule `NNC(=O)c1cnn(-c2ccnc3c(C(F)(F)F)cccc23)c1N`, the GI50 was more than 100 µM and the TGI is more than 100 µM.

`Cc1c(Cl)cccc1Nc1ncccc1C(=O)O`: the GI50 is more than 100 µM and the TGI is more than 100 µM.

Turning to `C#CC(C)(C)Oc1cc(O)c2c(=O)c3ccccc3n(C)c2c1`, the TGI was more than 100 µM.

`COC(=O)c1c(OC)cccc1C(=O)O` yielded a TGI of more than 100 µM.

Turning to `CC1=CCCC(OC(N)=O)C1` (centres undefined), the TGI is more than 100 µM.

As for `c1ccc(-c2nnc(-c3nn(-c4ccccc4)c4nc5ccccc5nc34)o2)cc1`, the TGI is more than 100 µM.

`O=[N+]([O-])c1ccc(NSc2ccccc2)cc1`: the TGI was found to be 87.3 µM.

Molecule `Cc1c(C(=O)/C=C/c2cccc3ccccc23)[n+](=O)c2ccccc2n1[O-]` displayed a TGI of 32.6 µM.

The molecule `CCCNC(=O)OCc1c(COC(=O)NCCC)c(-c2ccc(Cl)c(Cl)c2)n2c1CCC2` had a TGI of 10.5 µM.

For the molecule `C/C(=N\NC(N)=S)c1ccc(C)cc1C`, the TGI was more than 100 µM.

On to `CN(C)CCNc1nc2ccccc2c2[nH]c3ccccc3c12`, for which the GI50 was 1.72 µM and the TGI stood at 13.9 µM.

As for `O=C(N/N=C/c1cccc(O)c1O)N/N=C/c1cccc(O)c1O`, the TGI was more than 100 µM.

As for `COc1cc2c(cc1OC)C1C=NC(C(=O)O)(C2)c2ccccc21` (centres undefined), the TGI was more than 100 µM.

`CN(C)S(=O)(=O)Nc1ccccn1` gave a TGI of more than 100 µM.

`CCCCCCCCCCCCCCC1OC(=O)c2ccccc21` (centres undefined) showed a TGI of more than 100 µM.

The molecule `CN(C)CCNC(=O)c1cccc2nc3c(Cl)cccc3nc12` returned a TGI of more than 31.6 µM.

As to `CC(C)(C)C1=NC(S)NC(CCC(=O)Nc2ccccc2[N+](=O)[O-])=C1` (centres undefined), the TGI is more than 100 µM.

A further assay concerns SK-MEL-5 melanoma. In words: inhibition of tumour cell growth, NCI panel, 48 h.
`NC1(CCCCCCCCCCC(=O)O)CNCCNCCNCCNC1` registered a TGI of more than 100 µM.

In turn, `C1CN2N3CCCC23C1` (centres undefined) returned a TGI of more than 100 µM.

As for `CC[n+]1ccc2c(c1)C(=O)c1nccc3c1c-2nc1ccccc13`, the GI50 is 1.35 µM and the TGI was 5.54 µM.

For `CCCCCCCCCCCCOC1C(CNCC2OC3OC(C)(C)OC3C2NC(=O)Nc2ccc(C(=O)OCC)cc2)OC2OC(C)(C)OC21` (centres undefined), the GI50 was 2.05 µM and the TGI was found to be 4.13 µM.

Turning to `NNC(=O)c1cnn(-c2ccnc3c(C(F)(F)F)cccc23)c1N`, the GI50 is more than 100 µM and the TGI was more than 100 µM.

With `Cc1c(Cl)cccc1Nc1ncccc1C(=O)O`, the GI50 is 52.7 µM and the TGI is more than 100 µM.

In turn, `C#CC(C)(C)Oc1cc(O)c2c(=O)c3ccccc3n(C)c2c1` yielded a TGI of more than 100 µM.

For the molecule `COc1ccc(CNC(=O)COc2ccc(/C=N/Nc3nc4ccccc4s3)cc2)cc1`, the GI50 is 2.01 µM and the TGI came to 5.06 µM.

`COC(=O)c1c(OC)cccc1C(=O)O` returned a TGI of more than 100 µM.

For `CC1=CCCC(OC(N)=O)C1` (centres undefined), the TGI is more than 100 µM.

Molecule `O=[N+]([O-])c1ccc(NSc2ccccc2)cc1` returned a TGI of more than 100 µM.

In turn, `COc1cc([C@@H]2c3cc4c(cc3[C@@H](NC(=O)c3cccc([N+](=O)[O-])c3)C3COC(=O)[C@@H]32)OCO4)cc(OC)c1O` (some centres undefined) displayed a TGI of 3.65 µM.

Regarding `CCCNC(=O)OCc1c(COC(=O)NCCC)c(-c2ccc(Cl)c(Cl)c2)n2c1CCC2`, the TGI stood at 19.5 µM.

Regarding `CN(C)c1ccc2c(c1)oc(=O)c1ccccc12`, the TGI was determined as 22.8 µM.

The molecule `C/C(=N\NC(N)=S)c1ccc(C)cc1C` showed a TGI of more than 100 µM.

For `CN(C)CCNc1nc2ccccc2c2[nH]c3ccccc3c12`, the GI50 was 1.61 µM and the TGI is 3.94 µM.

In turn, `COc1cc2c(cc1OC)C1C=NC(C(=O)O)(C2)c2ccccc21` (centres undefined) had a TGI of more than 100 µM.

`CN(C)S(=O)(=O)Nc1ccccn1` yielded a TGI of more than 100 µM.

With `CN(C)CCNC(=O)c1cccc2nc3c(Cl)cccc3nc12`, the TGI was more than 42.3 µM.

In turn, `CC(C)(C)C1=NC(S)NC(CCC(=O)Nc2ccccc2[N+](=O)[O-])=C1` (centres undefined) registered a TGI of more than 100 µM.

For a further assay, the system named is 786-0 renal. In words: inhibition of tumour cell growth, NCI panel, 48 h.
`NC1(CCCCCCCCCCC(=O)O)CNCCNCCNCCNC1`: the TGI was more than 100 µM.

Regarding `C1CN2N3CCCC23C1` (centres undefined), the TGI was more than 100 µM.

On to `CC[n+]1ccc2c(c1)C(=O)c1nccc3c1c-2nc1ccccc13`, for which the GI50 was 0.768 µM and the TGI is 2.97 µM.

Regarding `CCCCCCCCCCCCOC1C(CNCC2OC3OC(C)(C)OC3C2NC(=O)Nc2ccc(C(=O)OCC)cc2)OC2OC(C)(C)OC21` (centres undefined), the GI50 was 3.29 µM and the TGI was 11.5 µM.

For the molecule `NNC(=O)c1cnn(-c2ccnc3c(C(F)(F)F)cccc23)c1N`, the GI50 was more than 100 µM and the TGI is more than 100 µM.

Turning to `Cc1c(Cl)cccc1Nc1ncccc1C(=O)O`, the GI50 is 70.4 µM and the TGI is more than 100 µM.

As to `C#CC(C)(C)Oc1cc(O)c2c(=O)c3ccccc3n(C)c2c1`, the TGI is more than 100 µM.

For the molecule `COc1ccc(CNC(=O)COc2ccc(/C=N/Nc3nc4ccccc4s3)cc2)cc1`, the GI50 is 2.37 µM and the TGI was found to be 5.9 µM.

Consider `COC(=O)c1c(OC)cccc1C(=O)O`, for which the TGI was more than 100 µM.

As to `CC1=CCCC(OC(N)=O)C1` (centres undefined), the TGI is more than 100 µM.

Molecule `c1ccc(-c2nnc(-c3nn(-c4ccccc4)c4nc5ccccc5nc34)o2)cc1` registered a TGI of more than 100 µM.
